Test results: US9040717B2, “Pyrazole-amide compounds and pharmaceutical use thereof” (JAPAN TOBACCO INC., priority 2013, dated 2015)

How the values were obtained:
[1] = tested on: liver PDH activity; assay: Ex vivo PDH activation assay, liver; assay type: in vivo, Sprague-Dawley rats
Description: (§1) The action of test compound on tissue PDH activity was evaluated. NADH production was detected via p-iodonitrotetrazolium violet (INT)-coupled system to measure PDH activity.
(§2) Normal male Sprague-Dawley rats were randomly allocated to the vehicle group and the test compound groups. The vehicle (0.5% aqueous methylcellulose solution, 5 mL/kg) or the test compound was orally administered to the rats. At 5 or 20 hr after administration, the rats were anesthetized with an intraperitoneal injection of sodium pentobarbital (60 mg/kg), and liver slices and epididymal adipose tissues were collected.
(§3) To the liver slices were rapidly added 9 volumes of ice-cold homogenization buffer (0.25 mol/L sucrose, 5 mmol/L tris(hydroxymethyl)aminomethane hydrochloride (pH 7.5), 2 mmol/L EDTA), and the mixtures were homogenized using a Polytron homogenizer. The homogenates were centrifuged at 600×g, 4° C. for 10 min to obtain the supernatant. The supernatants (1 mL) were centrifuged at 16,000×g, 4° C. for 10 min to collect the precipitates. The precipitates were washed by resuspension in the homogenization buffer (1 mL) and centrifuged in the same manner. The precipitates were frozen with liquid nitrogen and stored at −80° C. as the liver mitochondrial fraction.
(§4) The mitochondrial fractions were thawed and suspended with the sample buffer (0.25 mol/L sucrose, 20 mmol/L tris(hydroxymethyl)aminomethane hydrochloride (pH 7.5), 50 mmol/L potassium chloride, and 1 mL/L 4-(1,1,3,3-tetramethylbutyl)phenyl-polyethylene glycol (Triton X-100)). Active PDH activity (PDHa activity) and total PDH activity (PDHt activity) were measured to evaluate the PDH activity. For the measurement of the PDHt activity, equal amounts of the mitochondrial suspension and the activation buffer (0.25 mol/L sucrose, 20 mmol/L tris(hydroxymethyl)aminomethane hydrochloride (pH 7.5), 50 mmol/L potassium chloride, 1 mL/L Triton X-100, 4 mmol/L calcium chloride, 40 mmol/L magnesium chloride, 10 mmol/L sodium dichloroacetate) were mixed, and the mixtures were incubated at 37° C. for 10 min. Forty microliters of the mitochondrial suspensions diluted with a sample buffer were added to a 96-well microplate for activity measurement and blank measurement. Then 180 μL of the reaction mixture (0.056 mmol/L potassium phosphate buffer (pH 7.5), 5.6 mmol/L DL-carnitine, 2.8 mmol/L NAD, 0.22 mmol/L thiamin pyrophosphate, 0.11 mmol/L Coenzyme A, 1.1 mL/L Triton X-100, 1.1 mmol/L magnesium chloride, 1.1 g/L bovine serum albumin, 0.67 mmol/L INT, 7.2 μmol/L phenazine methosulfate, 28 mmol/L sodium oxamate) was added to each well, and then 20 μL of 50 mmol/L sodium pyruvate for activity measurement or water for blank measurement were added. The mixtures were incubated at room temperature under shading. The absorbances at 500-750 nm, which were attributable to reduction of INT, the final electron acceptor, were measured using a microplate reader over time and the changes in the absorbance were calculated. The PDH activity was calculated by subtraction of the change in absorbance of the blank well from that of the activity measurement well. The percentage of the PDHa activity to the PDHt activity was calculated and taken as an index of the PDH activation.

[2] = tested on: adipose tissue PDH activity; assay: Ex vivo PDH activation assay, adipose tissue; assay type: in vivo, Sprague-Dawley rats
Description: as §1, §2
as §3, with “adipose tissues” for “liver slices”, “3” for “9”, “of an” for “of”, “buffer,” for “buffer (0.25 mol/L sucrose, 5 mmol/L tris(hydroxymethyl)aminomethane hydrochloride (pH 7.5), 2 mmol/L EDTA),”, “supernatants” for “supernatants (1 mL)”, “adipose tissue” for “liver”
as §4

[3] = Metabolic stability test in rat liver microsome; assay type: in vitro ADME
[4] = Table 2, 5 hr after oral 3 mg/kg, non-fasting SD rats, vehicle 13 ± 3, mean ± S.D. (n = 3)
[5] = Table 2, 20 hr after oral 3 mg/kg, non-fasting SD rats, vehicle 13 ± 3, mean ± S.D. (n = 3)
[6] = Table 2, 5 hr after oral 3 mg/kg, non-fasting SD rats, vehicle 31 ± 10, mean ± S.D. (n = 3)
[7] = Table 2, 20 hr after oral 3 mg/kg, non-fasting SD rats, vehicle 31 ± 10, mean ± S.D. (n = 3)

SMILES	PDHa activity (% of PDHt activity) ([1]; Table 3, 5 hr after oral 3 mg/kg, SD rats, vehicle 28 ± 6, mean ± S.D. (n = 3))	PDHa activity (% of PDHt activity) ([1]; Table 3, 20 hr after oral 3 mg/kg, SD rats, vehicle 28 ± 6, mean ± S.D. (n = 3))	PDHa activity (% of PDHt activity) ([2]; Table 3, 5 hr after oral 3 mg/kg, SD rats, vehicle 42 ± 4, mean ± S.D. (n = 3))	PDHa activity (% of PDHt activity) ([2]; Table 3, 20 hr after oral 3 mg/kg, SD rats, vehicle 42 ± 4, mean ± S.D. (n = 3))	Stability in liver microsome (residual ratio %) ([3]; 10 min)	Stability in liver microsome (residual ratio %) ([3]; 60 min)	PDHa activity (% of PDHt activity) [1, 4]	PDHa activity (% of PDHt activity) [1, 5]	PDHa activity (% of PDHt activity) [2, 6]	PDHa activity (% of PDHt activity) [2, 7]
CC(C)(O)CCOc1cc(-c2cnn(C(C)(C)C(N)=O)c2)c2c(c1)[C@@](O)(C(F)(F)F)c1ccccc1-2 [Compound (2), 2-{4-[(9R)-9-hydroxy-2-(3-hydroxy-3-methylbutyloxy)-9-(trifluoromethyl)-9H-fluoren-4-yl]-1H-pyrazol-1-yl}-2-methylpropanamide]	74 ± 12 % of PDHt activity	50 ± 16 % of PDHt activity	88 ± 11 % of PDHt activity	61 ± 15 % of PDHt activity	98.8%	100.0%	–	–	–	–
CC(C)(O)CCCOc1cc(-c2cnn(C(C)(C)C(N)=O)c2)c2c(c1)[C@@](O)(C(F)(F)F)c1ccccc1-2 [Compound (3), 2-{4-[(9R)-9-hydroxy-2-(4-hydroxy-4-methylpentyloxy)-9-(trifluoromethyl)-9H-fluoren-4-yl]-1H-pyrazol-1-yl}-2-methylpropanamide]	–	–	–	–	102.7%	95.8%	56 ± 8 % of PDHt activity	32 ± 9 % of PDHt activity	70 ± 9 % of PDHt activity	42 ± 3 % of PDHt activity
NC(=O)Cn1cc(-c2cc(OCCC34CC5CC(CC(O)(C5)C3)C4)cc3c2-c2ccccc2[C@]3(O)C(F)(F)F)cn1 [Compound (A), 2-(4-{(9R)-9-Hydroxy-2-[2-(3-hydroxyadamantan-1-yl)ethoxy]-9-(trifluoromethyl)-9H-fluoren-4-yl}-1H-pyrazol-1-yl)acetamide]	–	–	–	–	24.8%	0.0%	35 ± 6 % of PDHt activity	16 ± 10 % of PDHt activity	32 ± 14 % of PDHt activity	24 ± 7 % of PDHt activity
Cn1cc(-c2cc(OCC(C)(C)O)cc3c2-c2ccccc2[C@]3(O)C(F)(F)F)cn1 [Compound (B), (9R)-2-(2-Hydroxy-2-methylpropoxy)-4-(1-methyl-1H-pyrazol-4-yl)-9-(trifluoromethyl)-9H-fluoren-9-ol]	–	–	–	–	101.1%	92.1%	43 ± 7 % of PDHt activity	10 ± 3 % of PDHt activity	59 ± 5 % of PDHt activity	30 ± 4 % of PDHt activity
